The results in this text go back to patent publication US11110080B2, “Small molecule inhibitors of bacterial efflux pumps and methods of using same” (The Regents of the University of Colorado, a body Corporate, priority 2017, dated 2021).

Assay [1] concerns S.Tm. Briefly: Swimming assay in soft agar (proton motive force). It counts as cell-based, Salmonella enterica serovar Typhimurium. The conditions noted are these: 50 mM, 10 μl on disk (500×, 125×, ~62.5× the MIC for EPM30, EPM35, EPM43).
The test system of assay [2] is wild-type S.Tm. The assay is described as follows: Growth in broth with antimicrobial peptides (polymyxin B, LL-37) and EPMs. Type of assay: cell-based, Salmonella enterica serovar Typhimurium. The conditions noted are these: polymyxin B 5 μg/ml (⅛ MIC) + 25 μM EPM. The text has this:
Next, it was investigated how EPMs might lead to bacterial clearance within host cells. […] Instead, EPMs may synergize with a host antimicrobial(s) that is effluxed by EPs. Two S.Tm EPs are necessary for infection of macrophages and mice (FIG. 10). The first EP, MacAB, is important for defense against ROS. The second S.Tm EP, AcrAB, is a homolog of MtrCDE, an EP in Neisseria gonorrhoeae which exports host antimicrobial peptides (AMPs). AcrAB thus likely exports AMPs as well as a variety of other substrates including antibiotics, dyes, and detergents. To test whether the EPMs synergize with macrophage defenses, wild-type bacteria was exposed in broth to ROS or AMPs in the presence of EPMs. […] Next, the two AMPs were tested: polymyxin B is a model peptide produced by bacteria; LL-37 is a human cathelicidin produced by macrophages.
Overnight Salmonella cultures were washed 3 times in PBS and diluted to an OD of 0.01 in Mueller Hinton Broth in 96-well flat bottom plates. Compound was added using a pin tool (CyBio) or manually, yielding a final concentration of no more than 1% DMSO. Plates were grown at 37° C. shaking and OD600 was monitored using a BioTek Eon incubator shaker microplate absorbance reader. For experiments in defined media, bacteria were grown in M9 minimal media supplemented with 100 mM Tris pH 7.4, 0.35% glycerol, 0.002% histidine, 10 mM MgCl2, and 0.1% casamino acids. […]

Assay [3] relates to S.Tm efflux pumps. Briefly: Nile Red efflux assay. Type of assay: cell-based, Salmonella enterica serovar Typhimurium. The conditions noted are these: for glucose-activated efflux of Nile Red: 100 μM; for Nile Red efflux after washout of compound: 15 minutes with compound, washed, then glucose; for Nile Red fluorescence in the absence of glucose (basal loss): no glucose. The text has this: Because Hoechst and other dyes commonly used to assess efflux bind cellular components, direct measurement of efflux is not possible using these methods; instead, the Hoechst assay measures dye accumulation, the net result of entry and efflux. Further, the slow off-rate of Hoechst entails that efflux pumps have no effect on dye already bound to DNA. As a result, compounds which increase Hoechst accumulation may actually enhance dye entry by altering porins or disrupting the membrane. To more specifically measure efflux pump activity, a second technique was employed using the dye Nile Red, a lipophilic membrane-partitioning dye which fluoresces in nonpolar environments. Because Nile Red is not known to bind cellular components, to directly observe efflux cells were preloaded with the dye in the absence of glucose to reduce efflux pump activity (FIG. 7A). Upon addition of glucose, bacteria rapidly effluxed Nile Red and fluorescence returned to baseline levels (FIG. 7B, top panel). […] The initial measured fluorescence was lower for DMSO-treated cells (upper dotted line) than for PAβN-treated cells due to glucose-independent efflux during sample preparation (FIG. 8A). Next, it was determined whether efflux pump activity is restored after removal of PAβN. Bacteria were incubated with compound for 15 minutes, pelleted and resuspended in buffer lacking compound, and then stimulated with glucose (FIGS. 7C, 7E).
(§1) Nile Red assays were adapted from an established protocol. Briefly, overnight Salmonella cultures were grown in Mueller-Hinton cation-adjusted broth (Sigma), washed, and resuspended at an OD600 of 2.0. Cells were incubated in 10 μM Nile Red for 3 hours at 37° C. with aeration, then moved to room temperature for 1 hour. After pelleting at 2000× g, dye-loaded cells were aliquoted and combined with compound at the indicated concentrations. Two hundred microliters was loaded into 96-well black walled plates (Greiner) and read using a Varioskan Flash Multimode Reader with 540 nm excitation and 625 nm emission filters. We observed that during loading into plates (˜20 minutes), bacteria were able to efflux Nile Red even in the absence of glucose (FIG. 8A). To activate efflux, glucose was added to a final concentration of 2 mM. In some experiments, bacteria were treated with drug for 15 minutes, pelleted at 16,000×g, resuspended in fresh buffer, and stimulated with 2 mM glucose. All wash and incubation steps were performed in PBS with 1 mM MgCl2; incubations were performed in glass tubes to reduce adhesion of Nile Red.

In assay [4] the test system is Enterobacter cloacae. Briefly: Nile Red export in MDR clinical isolate. It counts as cell-based. Conditions: after glucose addition.
Description: (§2) Six pathogens that cause the bulk of MDR nosocomial infections have been dubbed the ESKAPE pathogens: Enterococcus faecium, Staphylococcus aureus, Klebsiella pneumoniae, Acinetobacter baumannii, Pseudomonas aeruginosa, and Enterobacter species (56).
(§3) Referring to FIGS. 22A-22D: Defined strains obtained from BEI resources were examined for Nile Red retention after glucose addition in the presence of the indicated compound. *p<0.05; **p<0.01; ***p<0.001; ****p<0.0001 as determined by comparison to DMSO+glucose with a one-way ANOVA and Dunnett's multiple comparison post-test.
as §1, with “To activate efflux, glucose was added to a final concentration of 2 mM. In some experiments, bacteria were treated with drug for 15 minutes, pelleted at 16,000×g, resuspended in fresh buffer, and stimulated with 2 mM glucose. All wash and incubation steps were performed in PBS with 1 mM MgCl2; incubations were performed in glass tubes to reduce adhesion of Nile Red.” left out

Assay [5] deals with E. coli. Briefly: Nile Red export in E. coli. It counts as cell-based. Conditions: after glucose addition.
Description: as §2, §3
as §1, with “To activate efflux, glucose was added to a final concentration of 2 mM. In some experiments, bacteria were treated with drug for 15 minutes, pelleted at 16,000×g, resuspended in fresh buffer, and stimulated with 2 mM glucose. All wash and incubation steps were performed in PBS with 1 mM MgCl2; incubations were performed in glass tubes to reduce adhesion of Nile Red.” left out

Each structure is given as a SMILES string. “Also recorded” adds a separate entry of the source.

As to `OC(COc1ccc(Cl)c(Cl)c1)CN1CCC(Nc2nccc(C(F)(F)F)n2)CC1` (centres unmarked) [EPM35], the “halo in swimming assay” value in assay [1] is “formed a small halo”. In assay [2], the “growth on co-treatment with polymyxin B” value was “completely inhibited growth”. Besides, in assay [3], the “glucose-activated efflux of Nile Red” value is “fully inhibited efflux”, the “Nile Red efflux after washout of compound” value is listed as “remained unable to efflux” and the “Nile Red fluorescence in the absence of glucose (basal loss)” value was “inhibit basal loss of Nile Red”. Further, in assay [4], the “Nile Red export” value is “significantly reduced Nile Red export”. In assay [5], the “Nile Red export” value is on record as “significantly reduced Nile Red export”.

Turning to `Cc1ccc(Sc2cccc3nc(N)nc(N)c23)cc1` [EPM43], the “halo in swimming assay” value in assay [1] is on record as “formed no halo”. Moreover, the “growth on co-treatment with polymyxin B” value in assay [2] is given as “completely inhibited growth”. In addition, in assay [3], the “glucose-activated efflux of Nile Red” value was “only partially inhibited efflux”, the “Nile Red efflux after washout of compound” value is given as “partially effluxed Nile Red after compound washout; also recorded: partially restored Nile Red export” and the “Nile Red fluorescence in the absence of glucose (basal loss)” value is recorded as “inhibit basal loss of Nile Red”. The “Nile Red export” value in assay [4] is listed as “significantly reduced Nile Red export”. For the same molecule, the “Nile Red export” value in assay [5] was “significantly reduced Nile Red export”.
